According to patent publication US20080171720A1, “Nutritional Supplement For Hiv Patients” (N.V. Nutricia, priority 2005, published 2008):

Test system: intestinal tight junction permeability
Assay: Inflammatory mediated intestinal tight junction permeability
Details: no method or data given

## CCCCC/C=C\C/C=C\C/C=C\CCCCC(=O)O [GLA, gamma linolenic acid]
  reduction of inflammatory mediated intestinal tight junction permeability: effectively reduce inflammatory mediated intestinal tight junction permeability
